The test system of experiment [1] is HT-29 colon cancer cells. As to the kind of experiment: In vitro cell viability, HT-29. The experiment is classed as cell-based, human. The settings on record: Table 3B; 5 μM for 72 H; MIA-602 = 1. As for the experimental part: The inhibitory effects of the various synthesized GHRH antagonists were tested in cell proliferation assays in various human cancer cell lines including stomach cancer (KATOIII, N87), colon cancer (HT-29), urothelial cancer (J82, RT4), pancreatic cancer (PANC-1, CFPAC-1), prostatic cancer (PC3), breast cancer (MX-1, HCC1806), ovarian cancer (SK-OV-3, OVCAR-3) and lung cancer (HCC827, H460).
Cell culture. Human cancer cell lines including pancreatic (PANC-1 and CFPAC-1), lung (HCC827 and H460), stomach (NCI-N87 and KATOIII), urothelial (J82, RT4), prostatic (PC3), breast (MX-1 and HCC 1806), colorectal (HT-29), and ovarian (SK-OV-3 and OVCAR-3) were obtained from the American Type Culture Collection (ATCC) and cultured at 37° C. in a humidified 95% air/5% CO2 atmosphere in the medium recommended by ATCC.
In vitro cell viability. Cell viability was analyzed as follows: cancer cells including pancreatic (PANC-1 and CFPAC-1), lung (HCC827 and H460), stomach (NCI-N87 and KATOIII), urothelial (J82, RT4), prostatic (PC3) and breast (MX-1 and HCC 1806), colorectal (HT-29) and ovarian (SK-OV-3 and OVCAR-3) were grown on 96 well plates to ˜60% confluence, the cells were starved for 24 h in culture medium containing 0.5% FBS. Cells were then treated with GHRH antagonists MIA602 AVR compounds at concentrations of 1, 2.5 or 5 μM, or vehicle (0.1% DMSO) in quintuplicates for 72 hours. The medium was replaced every 48 hours. Cell viability was measured using CellTiter 96 aqueous one solution kit (Promega). Inhibitory effects of tested AVR compounds in comparison to that of MIA602 are presented as inhibitory potency.
Inhibitory effects of selected AVR compounds in comparison to that of MIA602 are presented as inhibitory potency (e.g., percentage of inhibition). […] The cell lines tested including lung cancer HCC827 (FIG. 2A), pancreatic cancer CFPAC-1 (FIG. 2B), stomach cancer N87 (FIG. 2C), colon cancer HT-29 (FIG. 2D), breast cancers MX-1 and HCC1806 (FIGS. 2 E, F). Based on the results of cell proliferation assay after cancer cells were treated with antagonist at concentration of 5 μM for 72H, the relative inhibitory potency of AVR antagonists in comparison to MIA-602 is summarized in Table 3 A and B. Over 60 AVR compounds were tested in 12 cancer cell lines.
Based on the results of cell proliferation assay after cancer cells were treated with antagonist at concentration of 5 µM for 72H, * at concentration of 2 µM for 72 H.

In experiment [2] the test system is stomach cancer N87 xenograft. As to the kind of experiment: Xenograft tumor growth in nude mice, N87. The settings on record: for % Inhibition: vs control. The class given is in vivo. As for the experimental part:
(§1) The peptides' activity was compared with GHRH antagonist MIA-602. All statistical analyzses were performed from comparing GHRA antagonists to non-treated tumor (control).
(§2) Peptides and chemicals. GHRH antagonists MIA-602 and AVR-GHRH antagonists (see Table 2 above) were synthesized by solid phase methods and purified by HPLC. The peptides were dissolved in DMSO and further diluted in 10% 1,2-propanediol. The final concentration of peptides was 50 µg/ml in 10% 1,2-propanediol containing 0.1% of DMSO.
(§3) Cell culture. Human cancer cell lines including pancreatic (PANC-1 and CFPAC-1), lung (HCC827 and H460), stomach (NCI-N87), prostate (PC3), brest (MX-1 and HCC-1806), colorectal (HT-29), and ovarian (SK-OV-3 and OVCAR-3) were obtained from the American Type Culture Collection (ATCC) and cultured at 37° C. in a humidified 95% air/5% CO2 atmosphere in the medium recommended by ATCC.
Xenograft models of human cancers in nude mice. Female athymic (NCr nu/nu) nude mice, 5- to 6-weeks-old, obtained from the Envigo labs (Tampa, Fla.), were housed in laminar airflow cabinets under pathogen-free conditions with a 12-h light/12-h dark schedule, and were fed autoclaved standard chow and water. To generate mice with xenografted tumors, tumor xenografts were initiated by subcutaneous (s.c.) injection of 107 human cancer cells into female nude mice. After about 4 weeks the resulting tumors were dissected and collected after removing necrosis tissues. The tumors were then cut into particles with size of 3 mm3 and transplanted s.c. by trocar needle into experimental animals. When tumors grew to the size of 50-60 mm3 (by volume), […] of 5 μg of GHRH antagonists MIA-602 or AVR-compounds (2-10 μg as indicated), or vehicle solutions (0.1% DMSO in 10% 1,2-propanediol) respectively. Tumor sizes were measured weekly.
(§4) Statistical analysis. One-way ANOVA followed by Bonferroni comparison were performed. Data are expressed as Mean±SEM. To determine statistical significance between animal groups, two-tailed Student's t-test was conducted. Differences were considered significant when p<0.05.
(§5) Results. […] FIG. 1A-N represents in vivo inhibition of tumor growth during the treatment with GHRH antagonist MIA-602 and selected AVR antagonists in nude mice xenografted with various human tumors including pancreatic cancer PANC-1 (FIG. 1A) and CFPAC-1 (FIG. 1I); lung cancer HCC827 (FIGS. 1B, C) and H460 (FIG. 1H); stomach cancer N87 (FIGS. 1D-F); colon cancer HT-29 (FIG. 1G); breast cancer MX-1 and HCC-1806 (FIGS. 1J, K); ovarian cancer SK-OV-3 and OVACAR-3 (FIGS. 1 L, M) and prostate cancer PC3 (FIG. 1N). See also Table 5.

For experiment [3], the system named is lung cancer HCC827 xenograft. The experiment in a line: Xenograft tumor growth in nude mice, HCC827. The settings on record: for % Inhibition: vs control. The class given is in vivo. The protocol:
as §1, §2, §3
Xenograft models of human cancers in nude mice. Female athymic (NCr nu/nu) nude mice, 5- to 6-weeks-old, obtained from the Envigo labs (Tampa, Fla.), were housed in laminar airflow cabinets under pathogen-free conditions with a 12-h light/12-h dark schedule, and were fed autoclaved standard chow and water. To generate mice with xenografted tumors, tumor xenografts were initiated by subcutaneous (s.c.) injection of 107 human cancer cells into female nude mice. After about 4 weeks the resulting tumors were dissected and collected after removing necrosis tissues. The tumors were then cut into particles with size of 3 mm3 and transplanted s.c. by trocar needle into experimental animals. When tumors grew to the size of 50-60 mm3 (by volume), mice were randomized into groups and treated daily for 4-8 weeks by subcutaneous administration of 5 μg of GHRH antagonists MIA-602 or AVR-compounds (2-10 μg as indicated), or vehicle solutions (0.1% DMSO in 10% 1,2-propanediol) respectively. Tumor sizes were measured weekly.
as §4, §5

Experiment [4] has as its system NCI-N87 stomach cancer cells. The experiment in a line: In vitro cell viability (CellTiter 96), N87. The experiment is classed as cell-based, human. The settings on record: for In vitro relative inhibitory potency in comparison to MIA-602, NCI-N87: Table 3B, 5 μM for 72 H, MIA-602 = 1. An outline of the steps: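 Viability by CellTiter 96 aqueous one solution (MTS) after 72 h exposure to antagonist at 5 μM (some at 2 μM), following 24 h starvation in 0.5% FBS. Results given as percentage inhibition relative to MIA602.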

[5] abbreviates: Table 4D, Stomach Ca N87, 10 weeks, 2 μg/day s.c.
Setting [6] is: Table 4F, Stomach Ca N87, 4 weeks, 2 μg/day s.c.
Where [7] appears, read: Table 4B, Lung Ca HCC827, 7 weeks, 5 μg/day s.c.
[8] abbreviates: Table 4F, Stomach Ca N87, 4 weeks, 5 μg/day s.c.
Where [9] appears, read: Table 4C, Lung Ca HCC827, 8 weeks, 2.5 μg/day s.c.
Where [10] appears, read: Table 4C, Lung Ca HCC827, 8 weeks, 5 μg/day s.c.
Where [11] appears, read: Table 4C, Lung Ca HCC827, 8 weeks, 10 μg/day s.c.

Non-standard residues stand in square brackets, D forms with d. Residues, ends and D or L forms follow the SMILES beside them. *: point of attachment. Phenylacetyl(2,3,4,5,6-F5) = O=C(Cc1c(F)c(F)c(F)c(F)c1F)*; Phe(F5) = N[C@@H](Cc1c(F)c(F)c(F)c(F)c1F)C(=O)O; Phe(4-Cl) = N[C@@H](Cc1ccc(Cl)cc1)C(=O)O; hArg = N=C(N)NCCCC[C@H](N)C(=O)O; 12Ado = NCCCCCCCCCCCC(=O)O; Nle = CCCC[C@H](N)C(=O)O; Abu = CC[C@H](N)C(=O)O

As a reminder, the % Inhibition is the percentage by which the read-out fell short of the control.

With `CCCC[C@H](NC(=O)[C@@H](NC(=O)[C@H](CC(=O)O)NC(=O)[C@H](CCC(N)=O)NC(=O)[C@H](CC(C)C)NC(=O)[C@H](CC(C)C)NC(=O)[C@H](CCCCN)NC(=O)[C@H](CCCNC(=N)N)NC(=O)[C@H](C)NC(=O)[C@H](CO)NC(=O)[C@H](CC(C)C)NC(=O)[C@H](CCC(N)=O)NC(=O)[C@H](CC)NC(=O)[C@H](CC(C)C)NC(=O)[C@@H](NC(=O)[C@H](CCCCN)NC(=O)[C@H](CCCNC(=N)N)NC(=O)[C@H](Cc1ccc(OC)cc1)NC(=O)[C@H](CCCCNC(=N)N)NC(=O)[C@H](C)NC(=O)[C@@H](NC(=O)[C@H](Cc1c(F)c(F)c(F)c(F)c1F)NC(=O)[C@@H](NC(=O)[C@H](C)NC(=O)[C@H](CC(=O)O)NC(=O)[C@@H](CCCNC(=N)N)NC(=O)[C@H](Cc1ccc(O)cc1)NC(=O)CCCCCCCCCCCNC(=O)Cc1c(F)c(F)c(F)c(F)c1F)[C@@H](C)CC)[C@@H](C)O)C(C)C)[C@@H](C)CC)C(=O)N[C@H](CCCNC(=N)N)C(=O)N[C@@H](CCCCNC(=N)N)C(=O)NC` [AVR-235] ({Phenylacetyl(2,3,4,5,6-F5)-12Ado}-Y[dR]DAI[Phe(F5)]TA[hArg]Y(Me)RKVL[Abu]QLSARKLLQDI[Nle][dR][hArg]-NHMe), the “In vitro relative inhibitory potency in comparison to MIA-602, HT-29” value in experiment [1] came to 0.968. Besides, in experiment [2] (setting [5]), the “Tumor Size (mm^3)” value amounted to 558.60 mm^3 and the “% Inhibition” value is given as 54.4%. In experiment [2] (setting [6]), the “Tumor Growth %” value was 312.80% and the “% Inhibition” value was found to be 64.9%. In addition, in experiment [3] (setting [7]), the “Tumor Growth %” value turned out to be 771.0% and the “% Inhibition” value was determined as 41.2%. Further, the “In vitro relative inhibitory potency in comparison to MIA-602, NCI-N87” value in experiment [4] is on record as 1.67. In experiment [4] (antagonist 5 μM for 72 h, cell proliferation assay, MIA602 = 1), the “relative inhibitory potency in comparison to MIA-602, Stomach N87” value is recorded as 2.911.

Turning to `CCCC[C@H](NC(=O)[C@@H](NC(=O)[C@H](CC(=O)O)NC(=O)[C@H](CCC(N)=O)NC(=O)[C@H](CC(C)C)NC(=O)[C@H](CC(C)C)NC(=O)[C@H](CCCCN)NC(=O)[C@H](CCCNC(=N)N)NC(=O)[C@H](C)NC(=O)[C@H](CO)NC(=O)[C@H](CC(C)C)NC(=O)[C@H](CCC(N)=O)NC(=O)[C@H](CC)NC(=O)[C@H](CC(C)C)NC(=O)[C@@H](NC(=O)[C@H](CCCCN)NC(=O)[C@H](CCCNC(=N)N)NC(=O)[C@H](Cc1c(F)c(F)c(F)c(F)c1F)NC(=O)[C@H](CCCCNC(=N)N)NC(=O)[C@H](C)NC(=O)[C@@H](NC(=O)[C@H](Cc1ccc(Cl)cc1)NC(=O)[C@@H](NC(=O)[C@H](C)NC(=O)[C@H](CC(=O)O)NC(=O)[C@@H](CCCNC(=N)N)NC(=O)[C@H](Cc1ccc(O)cc1)NC(=O)CCCCCCCCCCCNC(=O)Cc1c(F)c(F)c(F)c(F)c1F)[C@@H](C)CC)[C@@H](C)O)C(C)C)[C@@H](C)CC)C(=O)N[C@H](CCCNC(=N)N)C(=O)N[C@@H](CCCCNC(=N)N)C(=O)NCCCCCCCCCCCC(N)=O` [AVR-353, 5FPhAC-Ada-Tyr-DArg-Asp-Ala-Ile-Cpa-Thr-Ala-Har-5FPhe-Arg-Lys-Val-Leu-Abu-Gln-Leu-Ser-Ala-Arg-Lys-Leu-Leu-Gln-Asp-Ile-Nle-DArg-Har-Ada-NH2] ({Phenylacetyl(2,3,4,5,6-F5)-12Ado}-Y[dR]DAI[Phe(4-Cl)]TA[hArg][Phe(F5)]RKVL[Abu]QLSARKLLQDI[Nle][dR][hArg][12Ado]-NH2), in experiment [1], the “In vitro relative inhibitory potency in comparison to MIA-602, HT-29” value is 1.222. Further, the “Tumor Growth %” value is on record as 433.70% in experiment [2] (setting [6]); 312.20% in experiment [2] (setting [8]); 380.3% in experiment [3] (setting [7]); 545.65% in experiment [3] (setting [9]); 420.79% in experiment [3] (setting [10]); 359.16% in experiment [3] (setting [11]). Besides, the “% Inhibition” value in experiment [2] (setting [6]) is 51.4%; in experiment [2] (setting [8]) it was 65.0%; in experiment [3] (setting [7]), 71.0%; in experiment [3] (setting [9]), 35.1%; in experiment [3] (setting [10]), 50.0%; in experiment [3] (setting [11]), 57.3%. Also, the “In vitro relative inhibitory potency in comparison to MIA-602, NCI-N87” value in experiment [4] came to 3.404.

These data come from US20210395327A1, “Growth Hormone-Releasing Hormone Antagonists and Uses Thereof” (United States Government As Represented By The Department …, priority 2019, published 2021).
